Results: patent US20230310427A1, “NEW THERAPEUTIC USE OF RILPIVIRINE” (UNIVERSITY OF SOUTH AUSTRALIA, priority 2020, published 2023)

How the values were obtained:
[1] = test system: cyclin D1 mRNA in A2780 cells; test: RT-qPCR; format: cell-based; conditions: 24 hours
Procedure: (§1) The expression of different genes at the mRNA level was assayed by RT-qPCR. Briefly, cells (1×10^6) were seeded in 10 cm tissue culture plates and treated with compounds after having been cultured overnight at 37° C., 5% CO2. RNA was extracted using the High Pure RNA Isolation Kit (Roche Applied Science, Castle Hill, NSW, Australia) according to the manufacturer’s instructions. The concentration of RNA in each sample was determined using a NanoDrop® ND1000 spectrophotometer (ThermoFisher Scientific, Waltham, MA, United States of America). 1 µg of RNA was used in a 20 µL reverse transcription reaction using a Transcriptor First Strand cDNA Synthesis Kit (Roche Applied Science). RT-qPCR was completed using duplicate samples with cDNA using SYBR Green I dye (Roche Applied Science) and performed using Light Cycler LC96 (Roche Applied Science, Penzberg, Germany). GAPDH mRNA was used as a reference sequence and data was analysed using Bio-Rad CFX manager version 3.1.

[2] = test system: p53 mRNA in A2780 cells; test: RT-qPCR; format: cell-based; conditions: 24 hours
Procedure: as §1

[3] = test system: Leukemia (HL-60, U-937, NB4, Jurkat, K-562), ovarian (A2780), prostate (PC3) and breast (T47D) cancer cell lines; test: Cell viability assays (MTT and resazurin); format: cell-based; conditions: 72 hour treatment; range over all cell lines tested; read-out: IC50, inhibition of cancer cell proliferation
Source text: The MTT (3-(4,5-dimethylthiazol-2-yl)-2,5-diphenyl tetrazolium bromide; Sigma-Aldrich, St Louis, MO, United States of America) assay was used to determine half maximal inhibition values (IC50) in response to drug treatment using a number of different adherent cancer cell lines. The MTT was converted by metabolically active cells into an insoluble formazan product which was solubilised with 100% DMSO. The solubilised formazan gives absorbance at 560 nm which is directly proportional to the number of viable cells. The assay was carried out as previously described (Wang S et al., J Med Chem 47(7):1662-1675, 2004). The absorbance of treated wells was read using an EnVision multi-label plate reader. The resazurin assay was carried out for non-adherent cell lines as reported previously (Yu M et al., EJMC 95:116-126, 2015). IC50 values were determined by non-linear regression analysis using GraphPad Prism software.

[4] = test system: expanded panel of 429 different kinases; test: Kinase profiling, expanded panel; format: biochemical; conditions: 1 µM
Procedure: The ability of compounds to inhibit kinases was measured using ADP-Glo^Tm assay kits (Promega, Madison, WI, United States of America) or externally using radioisotope based assays (Reaction Biology Corporation, Malvern, PA, United States of America and Eurofins discovery services, France). The ADP-Glo assay was performed as reported previously (Basnet SK et al., Mol Pharmacol 88(5):935-948, 2015).The assay plate was read for luminescence using Envision multi-label plate reader (PerkinElmer, Waltham, MA, United States of America). Half-maximal inhibition (IC50) values were determined from a plot of percent residual activity versus concentration of test compounds using GraphPad Prism software. Ki values were calculated from IC50 values using the Cheng-Prusoff equation: Ki= IC50/ [1 + ([ATP]/Km ATP)], where [ATP] is the ATP concentration used for the IC50 determination and Km ATP for each kinase is determined from an individual experiment.
In a subsequent kinase profiling experiment, using an expanded panel of 429 different kinases, the inhibitory activity of Rilpivirine was confirmed using a reduced concentration of 1 µM. […] The percent inhibition against Aurora A, PIM1, LYN and YES kinases were 86, 78, 77 and 83% respectively at the concentration of 1 µM of Rilpivirine. The other 424 kinases were inhibited by less than 70 % at this concentration.

Structure (SMILES): Cc1cc(/C=C/C#N)cc(C)c1Nc1ccnc(Nc2ccc(C#N)cc2)n1 [Rilpivirine, 4-[[4-[4-[(E)-2-cyanoethenyl]-2,6-dimethylanilino]pyrimidin-2-yl]amino]benzonitrile]
- cyclin D1 mRNA [1]: decrease in cyclin D1mRNA was observed in a dose-dependent manner
- p53 mRNA expression ([2]; 20 µM): dramatic increase in p53 expression
- p53 mRNA expression ([2]; increasing concentration): upregulated p53 expression
- IC50 [3]: 3 to 8 µM
- percent inhibition of the other 424 kinases [4]: less than 70%
- kinase selectivity ([4]; panel of 429 kinases): selective inhibitor of Aurora A
